Peptide text beside a SMILES is read from it. * marks the point of attachment. pNA = O=[N+]([O-])c1ccc(N*)cc1; Cbz = O=C(OCc1ccccc1)*
System: cuscutain
Test: colorimetric release of para-nitroaniline at […] nm; Hanes-Woolf plot
Format: biochemical, Cuscuta reflexa
Settings: pH 7.5; 30 °C (50 mM Tris, 300 mM NaCl) or 37 °C (0.1 M Na-citrate, 20% ethanol), both printed

Structure (SMILES): N=C(N)NCCC[C@H](NC(=O)[C@H](Cc1ccccc1)NC(=O)OCc1ccccc1)C(=O)Nc1ccc([N+](=O)[O-])cc1 [Cbz-Phe-Arg-pNA] (Cbz-Phe-Arg-pNA)
- Km: 393 ± 20 µM
